# Results from ChEMBL document CHEMBL5465560, “Selectivity Literature for EUbOPEN Chemogenomic Library” (2024).
# What was measured:
# Aurora kinase B = Aurora kinase B (Homo sapiens, UniProt Q96GD4); test: Selectivity interaction (Enyzmatic assay) EUB0000601a AURKB
# [1] = molecular target: T1, Serine/threonine-protein kinase Chk1 (Homo sapiens) (UniProt O14757); test: Selectivity interaction (KinomeScan (DiscoverX)) EUB0000229b CHEK1; conditions: at 10 µM
# T1 sequence (whole entry): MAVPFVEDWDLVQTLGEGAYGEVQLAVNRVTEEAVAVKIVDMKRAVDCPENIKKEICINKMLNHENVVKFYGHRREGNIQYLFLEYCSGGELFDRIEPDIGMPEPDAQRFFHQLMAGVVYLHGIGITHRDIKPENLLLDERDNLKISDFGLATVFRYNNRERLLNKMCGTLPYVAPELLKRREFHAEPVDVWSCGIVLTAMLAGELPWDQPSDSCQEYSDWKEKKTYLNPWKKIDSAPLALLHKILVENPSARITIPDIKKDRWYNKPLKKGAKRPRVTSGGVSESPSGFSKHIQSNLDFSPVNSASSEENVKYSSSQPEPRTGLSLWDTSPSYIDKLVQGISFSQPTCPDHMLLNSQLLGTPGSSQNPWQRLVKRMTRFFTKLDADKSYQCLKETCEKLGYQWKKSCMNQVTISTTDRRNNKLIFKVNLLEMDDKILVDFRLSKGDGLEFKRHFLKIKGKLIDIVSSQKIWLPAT
# [2] = molecular target: Alpha-1D adrenergic receptor (Homo sapiens) (UniProt P25100); test: Selectivity interaction (GPCR panel (PDSP screen)) EUB0001079a ADRA1D; conditions: at 10 µM
# Alpha-1D adrenergic receptor (Homo sapiens), sequence (P25100 whole entry): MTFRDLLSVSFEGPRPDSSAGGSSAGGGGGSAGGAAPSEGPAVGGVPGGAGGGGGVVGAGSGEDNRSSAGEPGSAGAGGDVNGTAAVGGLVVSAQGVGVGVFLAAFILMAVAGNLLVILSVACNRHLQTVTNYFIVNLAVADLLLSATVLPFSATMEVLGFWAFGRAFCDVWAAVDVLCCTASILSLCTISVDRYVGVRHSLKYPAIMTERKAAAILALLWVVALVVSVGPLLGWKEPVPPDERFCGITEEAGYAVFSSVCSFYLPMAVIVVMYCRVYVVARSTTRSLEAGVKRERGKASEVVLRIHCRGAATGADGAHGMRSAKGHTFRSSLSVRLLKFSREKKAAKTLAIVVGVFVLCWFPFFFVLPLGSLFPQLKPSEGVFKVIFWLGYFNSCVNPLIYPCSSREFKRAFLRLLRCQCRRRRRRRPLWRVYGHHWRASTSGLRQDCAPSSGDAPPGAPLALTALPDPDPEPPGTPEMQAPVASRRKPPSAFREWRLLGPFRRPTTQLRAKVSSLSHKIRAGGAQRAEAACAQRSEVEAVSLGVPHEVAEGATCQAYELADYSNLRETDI
# [3] = molecular target: Serine/threonine-protein kinase MARK2 (Homo sapiens) (UniProt Q7KZI7); test: Selectivity interaction (ActivX KiNativ screen (kinase selectivity in THP-1 cell lysates)) EUB0000639a MARK2; format: subcellular; conditions: lysate, at 1 µM
# Serine/threonine-protein kinase MARK2 (Homo sapiens), sequence (Q7KZI7 whole entry): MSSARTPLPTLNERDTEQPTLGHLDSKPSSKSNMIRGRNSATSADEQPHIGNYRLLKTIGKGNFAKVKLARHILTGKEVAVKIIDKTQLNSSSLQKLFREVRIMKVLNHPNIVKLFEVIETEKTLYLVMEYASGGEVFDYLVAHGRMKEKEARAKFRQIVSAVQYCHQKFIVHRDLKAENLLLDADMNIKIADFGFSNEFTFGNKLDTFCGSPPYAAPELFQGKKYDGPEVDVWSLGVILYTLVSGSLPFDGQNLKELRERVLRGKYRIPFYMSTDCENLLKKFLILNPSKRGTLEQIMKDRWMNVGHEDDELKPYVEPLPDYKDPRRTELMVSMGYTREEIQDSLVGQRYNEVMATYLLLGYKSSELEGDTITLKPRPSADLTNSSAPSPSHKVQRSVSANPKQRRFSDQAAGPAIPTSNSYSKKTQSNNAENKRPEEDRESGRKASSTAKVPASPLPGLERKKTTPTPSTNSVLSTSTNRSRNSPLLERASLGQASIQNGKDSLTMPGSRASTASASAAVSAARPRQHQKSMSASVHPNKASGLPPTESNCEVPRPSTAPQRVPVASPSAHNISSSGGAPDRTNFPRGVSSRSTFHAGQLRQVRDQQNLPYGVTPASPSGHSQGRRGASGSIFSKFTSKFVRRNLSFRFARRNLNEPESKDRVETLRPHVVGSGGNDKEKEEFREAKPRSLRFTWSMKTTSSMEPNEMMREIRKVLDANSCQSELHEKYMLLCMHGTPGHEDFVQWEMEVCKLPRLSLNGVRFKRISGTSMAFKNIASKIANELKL
# [4] = molecular target: T2, Serine/threonine-protein kinase LATS2 (Homo sapiens) (UniProt Q9NRM7); test: Selectivity interaction (KinomeScan (DiscoverX)) EUB0000695a LATS2; conditions: at 100 nM
# T2 sequence (whole entry): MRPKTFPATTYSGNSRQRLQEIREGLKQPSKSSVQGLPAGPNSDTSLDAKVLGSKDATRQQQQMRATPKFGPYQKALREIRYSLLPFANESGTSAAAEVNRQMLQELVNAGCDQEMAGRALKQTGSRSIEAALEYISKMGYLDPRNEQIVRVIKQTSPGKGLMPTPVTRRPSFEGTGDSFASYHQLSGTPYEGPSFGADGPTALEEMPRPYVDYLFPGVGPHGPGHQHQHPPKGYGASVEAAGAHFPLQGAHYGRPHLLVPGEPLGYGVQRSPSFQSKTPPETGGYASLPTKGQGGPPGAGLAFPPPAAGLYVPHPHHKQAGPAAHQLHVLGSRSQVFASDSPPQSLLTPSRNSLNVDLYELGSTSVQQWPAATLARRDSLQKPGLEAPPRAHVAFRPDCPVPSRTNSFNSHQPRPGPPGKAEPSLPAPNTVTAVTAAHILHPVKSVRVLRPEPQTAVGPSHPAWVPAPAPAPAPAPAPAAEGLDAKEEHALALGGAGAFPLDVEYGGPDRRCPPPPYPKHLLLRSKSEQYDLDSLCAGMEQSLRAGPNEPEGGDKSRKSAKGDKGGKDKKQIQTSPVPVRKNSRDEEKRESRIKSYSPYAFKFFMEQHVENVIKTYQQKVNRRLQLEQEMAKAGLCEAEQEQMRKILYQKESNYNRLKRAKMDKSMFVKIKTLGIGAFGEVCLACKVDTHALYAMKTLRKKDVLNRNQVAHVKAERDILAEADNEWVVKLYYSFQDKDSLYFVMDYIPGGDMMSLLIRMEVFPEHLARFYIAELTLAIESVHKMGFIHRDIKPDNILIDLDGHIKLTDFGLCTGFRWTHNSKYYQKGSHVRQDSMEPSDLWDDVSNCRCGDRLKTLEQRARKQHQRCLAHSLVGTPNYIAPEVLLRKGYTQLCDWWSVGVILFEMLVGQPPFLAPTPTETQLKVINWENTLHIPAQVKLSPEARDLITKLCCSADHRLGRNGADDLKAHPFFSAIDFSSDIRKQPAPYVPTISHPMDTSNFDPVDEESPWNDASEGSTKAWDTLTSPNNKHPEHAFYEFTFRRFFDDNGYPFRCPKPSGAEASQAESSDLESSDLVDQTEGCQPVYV
# [5] = molecular target: Serine/threonine-protein kinase 25 (Homo sapiens) (UniProt O00506); test: Selectivity interaction (SelectScreen profiling (Invitrogen)) EUB0000607a STK25; conditions: at 2 µM
# Serine/threonine-protein kinase 25 (Homo sapiens), sequence (O00506 whole entry, looked up): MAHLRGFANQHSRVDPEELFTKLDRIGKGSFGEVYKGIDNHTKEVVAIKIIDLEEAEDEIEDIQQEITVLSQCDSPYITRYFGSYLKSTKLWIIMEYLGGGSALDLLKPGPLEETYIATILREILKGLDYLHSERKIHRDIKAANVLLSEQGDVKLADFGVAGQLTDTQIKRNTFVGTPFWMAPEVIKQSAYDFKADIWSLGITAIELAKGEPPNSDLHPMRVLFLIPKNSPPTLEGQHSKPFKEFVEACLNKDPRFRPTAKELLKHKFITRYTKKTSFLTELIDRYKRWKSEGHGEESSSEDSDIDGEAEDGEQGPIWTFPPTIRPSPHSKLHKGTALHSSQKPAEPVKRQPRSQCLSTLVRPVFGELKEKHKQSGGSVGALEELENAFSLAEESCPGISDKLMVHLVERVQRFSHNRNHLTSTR
# [6] = molecular target: T3, cGMP-dependent protein kinase 1 (Homo sapiens) (UniProt Q13976); test: Selectivity interaction (ProQinase) EUB0000171b PRKG1
# T3 sequence (whole entry): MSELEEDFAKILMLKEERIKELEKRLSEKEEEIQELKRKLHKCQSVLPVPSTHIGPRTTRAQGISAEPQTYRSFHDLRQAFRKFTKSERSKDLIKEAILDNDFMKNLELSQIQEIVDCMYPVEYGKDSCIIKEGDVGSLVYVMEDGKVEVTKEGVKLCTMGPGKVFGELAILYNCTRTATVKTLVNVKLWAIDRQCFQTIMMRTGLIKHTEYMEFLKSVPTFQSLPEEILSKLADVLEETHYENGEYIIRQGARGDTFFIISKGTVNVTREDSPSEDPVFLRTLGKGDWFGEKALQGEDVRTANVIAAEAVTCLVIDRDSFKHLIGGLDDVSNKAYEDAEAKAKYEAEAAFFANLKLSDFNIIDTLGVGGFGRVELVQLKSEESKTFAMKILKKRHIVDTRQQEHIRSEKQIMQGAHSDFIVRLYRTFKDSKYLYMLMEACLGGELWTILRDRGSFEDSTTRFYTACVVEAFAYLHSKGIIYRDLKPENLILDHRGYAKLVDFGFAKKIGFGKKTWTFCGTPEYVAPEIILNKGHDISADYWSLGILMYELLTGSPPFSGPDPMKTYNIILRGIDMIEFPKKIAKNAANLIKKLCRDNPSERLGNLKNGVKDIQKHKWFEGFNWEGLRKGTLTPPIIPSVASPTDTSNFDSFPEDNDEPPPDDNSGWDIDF
# Aurora kinase B, sequence (Q96GD4 whole entry): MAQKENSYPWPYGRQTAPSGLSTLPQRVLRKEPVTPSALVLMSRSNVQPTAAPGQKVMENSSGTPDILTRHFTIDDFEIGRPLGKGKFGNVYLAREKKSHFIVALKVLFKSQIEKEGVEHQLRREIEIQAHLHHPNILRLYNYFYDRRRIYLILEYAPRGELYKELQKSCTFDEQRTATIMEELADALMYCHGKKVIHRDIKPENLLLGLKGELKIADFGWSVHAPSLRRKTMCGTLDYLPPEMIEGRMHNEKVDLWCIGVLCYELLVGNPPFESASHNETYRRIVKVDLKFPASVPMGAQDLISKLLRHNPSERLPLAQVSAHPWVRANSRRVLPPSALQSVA
smiles,measurement,setting,value
CCc1cc(Nc2nccc(-c3c(-c4ccc(OC)c(C(=O)Nc5c(F)cccc5F)c4)nc4ccccn34)n2)c(OC)cc1N1CCC(N2CCN(S(C)(=O)=O)CC2)CC1,IC50,Aurora kinase B,> 4 µM
COc1cc(N(C)c2ccnc3ccc(C(F)(F)F)cc23)cc(OC)c1OC,% binding,[1],92%
Nc1cnc(N2CCc3cc(S(=O)(=O)Nc4c(F)cc(Cl)cc4F)cc(N4CCCC4=O)c32)nc1 [TP-020n],% of inhibition,[2],-2.31%
CC[C@@H]1[C@H](F)C(=O)N[C@@H]1COc1nccc2cc(C(N)=O)c(OC)cc12 [ZIMLOVISERTIB],% of inhibition,[3],4.3%
Cc1cc(F)c(C(=O)Nc2cccc(-c3nncn3C(C)C)n2)cc1-n1cnc(C2CC2)c1,% of control,[4],89%
CNC(=O)Nc1ccc(-c2nc(N3CC4CCC(C3)O4)c3cnn(C4CCC5(CC4)OCCO5)c3n2)cc1,% of inhibition,[5],2%
C=CC(=O)Nc1cccc(C(=O)Nc2ccc(Nc3cc(-c4[nH]c(SC)nc4C)ccn3)cc2)c1,% of control,[6]; at 1 µM,92%
same,% of control,[6]; at 5 µM,87%
